Reference: patent US20180072675A1, “ANTIMICROBIAL PYRIDINOHYDRAZIDE AND HYDRAZOMETHYLPYRIDINE-BASED AGENTS” (Board of Supervisors of Louisiana State University and …, priority 2015, published 2018)
Values after ≈ are worked out from the molar mass of the structure shown.

Experiments:
[1] = tested on: C. albicans clinical isolate 1 (TW1); assay: MIC80 fungal growth inhibition, clinical isolate TW1; format: cell-based, Candida albicans; details: Azole-susceptible, >80% growth inhibition, visual scoring; for MIC80: Candida albicans, read-out: MIC80 TW1
Protocol: (§1) The antifungal activity of the pyridinohydrazide and hydrazomethylpyridine derivatives described in the s were evaluated in vitro using Candida albicans (ATCC Accession No. 10231) and Candida glabrata (ATCC Accession No. 48435). In addition, the compounds were evaluated for activity against two previously-described clinical isolates of C. albicans known to have developed azole-resistance. These isolates were obtained over a two year period from a single AIDS patient and the development of the azole-resistance mechanisms have been extensively characterized (White T C. Antimicrob. Agents Chemother. (1997) 41: 1482-1487). MIC assays were performed on the clinical isolates 1 and 17 (annotated TW1 and TW17, respectively), where isolate 1 was used as an azole-susceptible control and isolate 17 was considered azole-resistant. All assays were done in accordance with NCCLS reference documents (Clinical Laboratory and Standards Institute. Reference method for Broth Dilution Antifungal Susceptibility Testing of Yeasts: Approved Standard. M27-A3 2010; 28). The results of these screenings are summarized in Tables 1-9 (Examples 20-27) as the minimum concentrations that inhibited more than 80% of fungal growth (MIC80) as compared to positive controls containing 1% DMSO. Assays were performed in HEPES-buffered RPMI-1640 media. All MIC screens used a visual scoring method as opposed to spectroscopic analysis, due to the altered absorbance spectra of many of the compounds.

[2] = tested on: Candida albicans (ATCC Accession No. 10231); assay: MIC80 fungal growth inhibition, C. albicans ATCC 10231; format: cell-based; details: Azole-susceptible, >80% growth inhibition, visual scoring; for MIC80: Candida albicans, ATCC10231, read-out: MIC80 C. albicans ATCC No. 10231
Protocol: as §1

[3] = tested on: Candida glabrata (ATCC Accession No. 48435); assay: MIC80 fungal growth inhibition, C. glabrata ATCC 48435; format: cell-based; details: Azole-resistant, >80% growth inhibition, visual scoring; for MIC80: Nakaseomyces glabratus, ATCC48435, read-out: MIC80 C. glabrata ATCC No. 48435
Protocol: as §1

[4] = tested on: C. albicans clinical isolate 17 (TW17); assay: MIC80 fungal growth inhibition, clinical isolate TW17; format: cell-based, Candida albicans; details: Azole-resistant, >80% growth inhibition, visual scoring; for MIC80: Candida albicans, read-out: MIC80 TW17
Protocol: as §1

[5] = tested on: Candida strain TW17; assay: Time-kill assay; format: cell-based, Candida albicans; details: four times the MIC for TW17, 48 h
Protocol: FIG. 9 illustrates time-kill assays, for representative analogs that were active against the azole-resistant TW17, to determine the cidal or static nature of the analog tested. 100 μl of each sample was spread onto YM agar plates with a sterile bent spreading rod. Plates were incubated at 35° C. overnight and colonies were then counted on each plate.
One of the objectives of this study was to determine the cidal or static nature of the analogs that were active against such as TW17, the azole-resistant clinical isolate. Azoles affect Candida spp. by inhibiting ergosterol biosynthesis, and ultimately prevent their reproduction. This effect has led to the classification of azoles as fungistats. Determining the fungistatic or fungicidal nature of the synthesized compounds of the present disclosure allows a comparison to azoles, in addition to improving the understanding of how the structural motifs might lend toward an alternate mechanism of action. Therefore, time-kill assays were performed using the representative analogs that were active against the azole-resistant TW17 at concentrations at or below 8 μg/mL.
Solid drugs were dissolved in DMSO to a concentration of 10 mg/ml. This stock solution was then further diluted in water to the desired experimental concentration, determined to be four times that of the MIC for the Candida strain TW17 (as reported in the Tables).
Individual colonies of TW17 were suspended in 5 ml of sterile water and adjusted to achieve a McFarland reading between 0.08 and 0.12. The inoculum was then further diluted in sterile water at a ratio of 1:100. Three […] tissue culture tubes were prepared by combining 2.5 ml of above diluted inoculum, 21.7 ml of HEPES buffered RPMI-1640 media, and 800 μl of experimental drug dilution. A “Growth Control” tube was prepared by combining 2.5 ml of inoculum, 21.7 HEPES buffered RPMI-1640 media, and 800 μl of water-DMSO solution equal to the DMSO concentration of the experimental drug dilution. A “Sterile Control” tube was prepared by combining 24.2 ml of HEPES-buffered RPMI-1640 media and 800 μl of water-DMSO solution as in the “Growth Control”. All tubes were incubated for 48 hours at 35° C., 50 rpm. 500 μl samples were taken from the tubes at time points of predetermined intervals during this incubation.
Time points for the “Kill-Curve” and “Growth Control” tubes were taken at 0, 1, 2, 4, 6, 8, 24, and 48 h after the start of incubation. Time points for “Sterile Control” were taken at 0 and 48 hours. Each time point sample was serially diluted 1:10 in sterile 0.9% NaCl solution up to 5 times. 100 μl of each sample was spread onto YM agar plates with a sterile bent spreading rod. Plates were incubated at 35° C. overnight and colonies were then counted on each plate. Colonies on plates from diluted time points were used to estimate uncountable undiluted samples. The number of colonies in undiluted samples was estimated to be 10^n times greater than the diluted sample, where n was the number of dilutions made.

[6] = tested on: Candida albicans ATCC Accession No. 10231; assay: Checkerboard synergy assay with fluconazole; format: cell-based
Protocol: Considering that two different modes of activity (cidal and static) were observed depending on the structural motifs present in our analogs, we performed a series of checkerboard assays to determine if representative active compounds were in fact acting in synergy with the azole, fluconazole. Each of these assays tested multiple concentrations of the selected analog in the presence of multiple concentrations of fluconazole. All checkerboard assays were prepared in 96-well plates. 200 μl of previously prepared drug solutions were added to each well in column 2. Using a multichannel pipette, 100 μl from each well in column 2 was serially diluted (1:2) horizontally across the plate, stopping at column 10. Contents of each well were mixed thoroughly. Column 11 was reserved for fluconazole MIC control and contained no other drug. 100 μl of media was added to each well, column 2-10. Each well was mixed thoroughly with a multichannel pipette. 100 μl was then removed and discarded from these wells. 100 μl of previously prepared fluconazole dilution was added to each well in row B. Using a multichannel pipette, 100 μl from each well was serially diluted (1:2) vertically down the plate, stopping at row F. Contents of each well were mixed thoroughly. Row G was reserved for tested drug MIC control and contained no fluconazole. Well G11 contained neither drug and served as a drug-free growth control. The final 100 μl from each well in row F was discarded.
The fungal samples were prepared from glycerol stocks of Candida albicans ATCC Accession No. 10231. The inoculum's concentration was adjusted to a McFarland standard between 0.08 and 0.12. Inoculum was then diluted at a ratio of 1:37.5 in buffered media. 100 μl of inoculum-media solution was added to each well. Following inoculation, the 96-well plates were wrapped in parafilm to prevent evaporation and incubated for overnight at 35° C. After 18 h, the wells showing growth were recorded.
Synergistic activity was determined based on the MIC read from these plates. The fractional inhibitory concentration (FIC) for a given well is the ratio of the minimum inhibitory concentration of one drug A in the presence another drug B to the minimum inhibitory concentration with only drug A. The FIC was calculated for the test drug in each of the wells along the growth/no-growth interface at varying concentrations of fluconazole, then these values were averaged to determine the average FIC for the test drug. The same process was used to calculate the average FIC for fluconazole at varying concentrations of the test drug. The sum of these two FICs gives the FIC index which can be used to determine the synergistic effect between the two drugs (Hsieh et al., Diagn. Microbiol. Infect. Dis. (1993) 16: 343-349). An FIC index value less than 1 indicated synergistic interactions between the two drugs while an FIC index value greater than or equal to 1 indicated antagonistic interactions.

Row | MIC80 [1] [µg/mL] | MIC80 [2] [µg/mL] | MIC80 [3] [µg/mL] | MIC80 [4] [µg/mL] | MIC80 TW1 [1] [µg/mL] | MIC80 TW17 [4] [µg/mL] | MIC80 C. albicans ATCC No. 10231 [2] [µg/mL] | MIC80 C. glabrata ATCC No. 48435 [3] [µg/mL] | Compound | further results
1 | 62 (≈ 257 µM) | 16 (≈ 66.3 µM) | 8 (≈ 33.2 µM) |  |  |  |  |  | O=C(N/N=C/c1ccccc1O)c1ccccn1 [AR1, (E)-N′-(2-hydroxybenzylidene)picolinohydrazide] | 
2 | 8 (≈ 29.5 µM) | 4 (≈ 14.7 µM) | 1 (≈ 3.69 µM) | 31 (≈ 114 µM) |  |  |  |  | COc1ccc(O)c(/C=N/NC(=O)c2ccccn2)c1 [AR3, (E)-N′-(2-Hydroxy-5-methoxybenzylidene)picolinohydrazide] | 
3 | 8 (≈ 27.9 µM) | 4 (≈ 14 µM) | 8 (≈ 27.9 µM) | 8 (≈ 27.9 µM) |  |  |  |  | O=C(N/N=C/c1cc([N+](=O)[O-])ccc1O)c1ccccn1 [AR6, (E)-N′-(2-hydroxy-5-nitrobenzylidene)picolinohydrazide] | Cidal vs Static [5]: Static; FIC Fluc ([6]; average FIC of fluconazole at varying concentrations of the test drug): 1.00; FIC Test ([6]; average FIC of the test drug at varying concentrations of fluconazole): 1.00; Activity (interaction with fluconazole) ([6]; from FIC index): Antagonistic; FIC Index ([6]; sum of the two FICs, <1 synergistic, >=1 antagonistic): 2.00
4 | 4 (≈ 16.6 µM) | 4 (≈ 16.6 µM) | 16 (≈ 66.3 µM) | 31 (≈ 128 µM) |  |  |  |  | O=C(N/N=C/c1ccccc1O)c1cccnc1 [AR7] | 
5 |  |  |  |  | 16 (≈ 59 µM) | 4 (≈ 14.7 µM) | 62 (≈ 229 µM) | 4 (≈ 14.7 µM) | COc1ccc(O)c(/C=N/NC(=O)c2cccnc2)c1 [AR9] | 
6 | 8 (≈ 29 µM) | 4 (≈ 14.5 µM) | 8 (≈ 29 µM) | 62 (≈ 225 µM) |  |  |  |  | O=C(N/N=C/c1cc(Cl)ccc1O)c1cccnc1 [AR10] | 
7 |  |  |  |  | 8 (≈ 25 µM) | 16 (≈ 50 µM) | 4 (≈ 12.5 µM) | 16 (≈ 50 µM) | O=C(NN=Cc1cc(Br)ccc1O)c1cccnc1 [AR11] | 
8 |  |  |  |  | 4 (≈ 16.6 µM) | 31 (≈ 128 µM) | 8 (≈ 33.2 µM) | 16 (≈ 66.3 µM) | O=C(NN=Cc1ccccc1O)c1ccncc1 [AR13] | 
9 |  |  |  |  | 16 (≈ 62.7 µM) | 31 (≈ 121 µM) | 4 (≈ 15.7 µM) | 31 (≈ 121 µM) | Cc1ccc(O)c(C=NNC(=O)c2ccncc2)c1 [AR14] | 
10 | 16 (≈ 59 µM) | 4 (≈ 14.7 µM) | 4 (≈ 14.7 µM) | 16 (≈ 59 µM) |  |  |  |  | COc1ccc(O)c(/C=N/NC(=O)c2ccncc2)c1 [AR15] | 
11 |  |  |  |  | 16 (≈ 58 µM) | 125 (≈ 453 µM) | 31 (≈ 112 µM) | 16 (≈ 58 µM) | O=C(NN=Cc1cc(Cl)ccc1O)c1ccncc1 [AR16] | 
